Several values for one entry are separate records, joined by “and”; a condition that tells them apart may be missing. Equal entries are not always repeated.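 The compound was tested at five concentrations on cells cultured in 96-well plates, with a 48-hour exposure period. Here, GI50 denotes the concentration required for 50% inhibition of growth. TGI: total growth inhibition.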
Key:
Test in all cases: NCI anticancer screen, dose series, 48 h
OVCAR-4 ovarian = system: OVCAR-4 ovarian
A498 renal = system: A498 renal
NCI-H460 lung = system: NCI-H460 lung
MCF7 breast = system: MCF7 breast
COLO 205 colon = system: COLO 205 colon
EKVX NSCLC = system: EKVX NSCLC
SN12C renal = system: SN12C renal
T-47D breast = system: T-47D breast
CAKI-1 renal = system: CAKI-1 renal
SF-295 CNS = system: SF-295 CNS

| Compound | TGI (OVCAR-4 ovarian) | TGI (A498 renal) | TGI (NCI-H460 lung) | TGI (MCF7 breast) | TGI (COLO 205 colon) | TGI (EKVX NSCLC) | TGI (SN12C renal) | TGI (T-47D breast) | TGI (CAKI-1 renal) | TGI (SF-295 CNS) | GI50 (OVCAR-4 ovarian) | GI50 (A498 renal) | GI50 (NCI-H460 lung) | GI50 (COLO 205 colon) | GI50 (EKVX NSCLC) | GI50 (SN12C renal) | GI50 (T-47D breast) | GI50 (CAKI-1 renal) | GI50 (SF-295 CNS) |
| --- | --- | --- | --- | --- | --- | --- | --- | --- | --- | --- | --- | --- | --- | --- | --- | --- | --- | --- | --- |
| O=[N+]([O-])c1ccc2nc3ccc([N+](=O)[O-])cn3c2c1 | > 100 µM | > 100 µM | > 100 µM | > 100 µM | > 100 µM | > 100 µM | > 100 µM | > 100 µM | 89.2 µM | > 100 µM | – | – | – | – | – | – | – | – | – |
| Oc1ccc2ccccc2c1-c1nnc(CCCCCCCCc2nnc(-c3c(O)ccc4ccccc34)o2)o1 | 25 µM | 25 µM and 41 µM | 25 µM and > 47.2 µM | > 37.2 µM | 15 µM and > 44.9 µM | 25 µM and > 100 µM | – | 25 µM and > 100 µM | 3.11 µM | 25 µM and > 93.6 µM | 2.35 µM | 14.2 µM | 0.715 µM | 5.99 µM | 6.7 µM | 0.428 µM | 1.67 µM | 0.698 µM | 2.83 µM |

— PubChem BioAssay (NCI)
